Reference: US8765744B2, “Azaspirohexanones” (Boehringer Ingelheim International GmbH, priority 2010, dated 2014)

Target: 11β-HSD1 (Homo sapiens (Human), UniProt P28845)
Conditions: read-out: Inhibitory activity on 11β-HSD 1, IC50; human liver microsomes; 1 hour at 37° C.; NADPH 200 μM, cortisone 80 nM; HTRF cortisol detection
Procedure: The biological properties (inhibitory activity on 11β-hydroxysteroid dehydrogenase 1) of the new compounds may be investigated as follows:
Briefly, compounds are incubated for 1 hour at 37° C. in Tris buffer (20 mM tris, 5 mM EDTA, pH 6.0) containing NADPH (200 μM) and cortisone (80 nM). Cortisol generated in the reaction is then detected with a competitive immunoassay, involving two HTRF conjugates: cortisol linked to XL665 and anti-cortisol antibody labeled with Europium cryptate. The incubation period for detection reaction is typically 2 hours. […] The ratio of the two emission signals is then calculated (Em665*10000/Em615). […] Each assay also contains a calibration curve with cortisol to transform the fluorescent data into cortisol concentrations. Percent inhibition (% CTL) of each compound is determined relative to the carbenoxolone signal and IC50 curves are generated.

11β-HSD1, sequence (P28845 whole entry): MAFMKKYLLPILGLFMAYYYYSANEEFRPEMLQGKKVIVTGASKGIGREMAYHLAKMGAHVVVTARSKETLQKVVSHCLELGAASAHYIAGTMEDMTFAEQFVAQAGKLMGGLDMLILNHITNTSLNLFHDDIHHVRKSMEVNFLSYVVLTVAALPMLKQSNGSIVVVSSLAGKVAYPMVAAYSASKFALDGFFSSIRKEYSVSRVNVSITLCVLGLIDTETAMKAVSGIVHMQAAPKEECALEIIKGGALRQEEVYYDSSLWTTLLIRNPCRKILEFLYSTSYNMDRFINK

| IC50 [µM] | SMILES |
| --- | --- |
| > 10 | C[C@@H](c1ccc(-c2ccc(C(=O)N(C)C)nc2)cc1)N1CCC2(CCC3(CC2)OCC(C)(C)CO3)OC1=O [Example 17, 5-{4-[(S)-1-(12,12-Dimethyl-2-oxo-1,10,14-trioxa-3-aza-dispiro[5.2.5.2]hexadec-3-yl)-ethyl]-phenyl}-pyridine-2-carboxylic acid dimethylamide] |
| > 10 | C[C@@H](c1ccc(-c2ccn(C)c(=O)c2)cc1)N1CCC2(CCC3(CC2)OCC(C)(C)CO3)OC1=O [Example 16, 12,12-Dimethyl-3-{(S)-1-[4-(1-methyl-2-oxo-1,2-dihydro-pyridin-4-yl)-phenyl]-ethyl}-1,10,14-trioxa-3-aza-dispiro[5.2.5.2]hexadecan-2-one] |
